In patent US20130317037A1, “METHOD OF ADMINISTRATION AND TREATMENT” (GlaxoSmithKline Intellectual Property Development Limited, priority 2010, published 2013):
Like-named read-outs stand apart in the source and are kept apart here.

Columns and labels:
Type in all cases: cell-based
BT474 = assay: cells
Experimental: (§1) From the stock concentration, 8 serial dilutions (1:5) were made with DMSO.
(§2) Day −1: Plate cells in 100 μl volume in 96 well plate. • Note: Cell number seeded adjusted for growth characteristics, so that at time of assay for proliferation following three-day drug treatment, the control wells should still be in log-growth phase (sub-confluent). Day 0: Drug added to plate for treatment. • A time 0 plate was processed for the proliferation assay to establish a baseline reading at time when drug was added.
(§3) LBNL are following the protocols set up by the NCI/NIH DTP Human Tumor Cell Line Screen Process (http://dtp.nci.nih.gov/branches/btb/ivclsp.html) and summarized below.
(§4) [(Ti−Tz)/(C−Tz)]×100 for concentrations for which Ti>/=Tz
(§5) [(Ti−Tz)/(C−Tz)]×100=50, • which is the drug concentration resulting in a 50% reduction in the net growth in control cells during the drug incubation. TGI: Total growth inhibition is calculated from
(§6) Ti=Tz. • The drug concentration resulting in total growth inhibition (down to the ‘time 0’ baseline). LC50: Net loss of cell growth at 50% is calculated from
(§7) [(Ti−Tz)/Tz]×100=−50. • The concentration of drug resulting in a 50% reduction in the cell number at the end of the drug treatment as compared to that at the beginning (time 0) indicating a net loss of cells following treatment.
(§8) Values are calculated for each of these three parameters if the level of activity is reached; however, if the effect is not reached or is exceeded, the value for that parameter is expressed as greater or less than the maximum or minimum concentration tested.

MDAMB361 = assay: cells
Experimental: as §1, §2, §3, §4, §5, §6, §7, §8

HCC2185 = assay: cells
Experimental: as §1, §2, §3, §4, §5, §6, §7, §8

in vitro = details: human
Experimental: as §1, §2, §3, §4, §5, §6, §7, §8

SUM229PE = assay: cells
Experimental: as §1, §2, §3, §4, §5, §6, §7, §8

MDAMB157 = assay: cells
Experimental: as §1, §2, §3, §4, §5, §6, §7, §8

MDAMB231 = assay: cells
Experimental: as §1, §2, §3, §4, §5, §6, §7, §8

MDAMB175VII = assay: cells
Experimental: as §1, §2, §3, §4, §5, §6, §7, §8

HCC1143 = assay: cells
Experimental: as §1, §2, §3, §4, §5, §6, §7, §8

MCF10F = assay: cells
Experimental: as §1, §2, §3, §4, §5, §6, §7, §8

600MPE = assay: cells
Experimental: as §1, §2, §3, §4, §5, §6, §7, §8

184B5 = assay: in vitro
Experimental: as §1, §2, §3, §4, §5, §6, §7, §8

SKBR3 = assay: cells
Experimental: as §1, §2, §3, §4, §5, §6, §7, §8

BT483 = assay: cells
Experimental: as §1, §2, §3, §4, §5, §6, §7, §8

MDAMB436L = assay: cells
Experimental: as §1, §2, §3, §4, §5, §6, §7, §8

HCC1395 = assay: cells
Experimental: as §1, §2, §3, §4, §5, §6, §7, §8

MDAMB415 = assay: cells
Experimental: as §1, §2, §3, §4, §5, §6, §7, §8

ZR751 = assay: cells
Experimental: as §1, §2, §3, §4, §5, §6, §7, §8

184A1 = assay: in vitro
Experimental: as §1, §2, §3, §4, §5, §6, §7, §8

AU565 = assay: cells
Experimental: as §1, §2, §3, §4, §5, §6, §7, §8

SUM149PT = assay: cells
Experimental: as §1, §2, §3, §4, §5, §6, §7, §8

[1] = Homo sapiens, 50% net loss of cells vs time 0, read-out: LC50 (the source's name)
[2] = Homo sapiens, 72 h, three-day drug treatment, read-out: gIC50

## COc1ncc(-c2ccc3nccc(-c4ccnnc4)c3c2)cc1NS(=O)(=O)c1ccc(F)cc1F [Compound B, 2,4-difluoro-N-{2-(methyloxy)-5-[4-(4-pyridazinyl)-6-quinolinyl]-3-pyridinyl}benzenesulfonamide]
BT474; BT474, total growth inhibition
  TGI: 20.1 nM
BT474; Homo sapiens, BT-474, 72 h, BT474, three-day drug treatment, read-out: gIC50
  IC50: 4.8 nM
BT474; Homo sapiens, BT-474, BT474, 50% net loss of cells vs time 0, read-out: LC50 (the source's name)
  CC50: 119 nM
MDAMB361; Homo sapiens, MDA-MB-361, 72 h, MDAMB361, three-day drug treatment, read-out: gIC50
  IC50: 1.7 nM
MDAMB361; Homo sapiens, MDA-MB-361, MDAMB361, 50% net loss of cells vs time 0, read-out: LC50 (the source's name)
  CC50: 26.9 nM
MDAMB361; MDAMB361, total growth inhibition
  TGI: 4.9 nM
HCC2185; HCC2185, total growth inhibition
  TGI: 10.0 nM
HCC2185; Homo sapiens, 72 h, HCC2185, three-day drug treatment, read-out: gIC50
  IC50: 3.2 nM
HCC2185; Homo sapiens, HCC2185, 50% net loss of cells vs time 0, read-out: LC50 (the source's name)
  CC50: 132 nM
In vitro; 184A1 breast epithelium cells (HER2−, PIK3CA NA), 184A1, 50% net loss of cells vs time 0, read-out: LC50
  CC50 at 3 days: 26700 nM
In vitro; 184B5 breast epithelium cells (HER2−, PIK3CA NA), 184B5, 50% net loss of cells vs time 0, read-out: LC50
  CC50 at 3 days: > 33000 nM
In vitro; MCF10A cells (breast epithelium; HER2−; PIK3CA NA), 50% net loss of cells vs time 0, read-out: LC50
  CC50 at 3 days: 6700 nM
In vitro; MCF10F cells (breast epithelium; HER2−; PIK3CA NA), 50% net loss of cells vs time 0, read-out: LC50
  CC50 at 3 days: 98.7 nM
In vitro; MCF12A cells (breast epithelium; HER2−; PIK3CA wild type), 50% net loss of cells vs time 0, read-out: LC50
  CC50 at 3 days: 2760 nM
SUM229PE; [1]
  CC50: 126 nM
SUM229PE; [2]
  IC50: 2.5 nM
SUM229PE; total growth inhibition
  TGI: 17.4 nM
MDAMB157; Homo sapiens, MDA-MB-157, 72 h, MDAMB157, three-day drug treatment, read-out: gIC50
  IC50: 398 nM
MDAMB157; Homo sapiens, MDA-MB-157, MDAMB157, 50% net loss of cells vs time 0, read-out: LC50 (the source's name)
  CC50: > 33000 nM
MDAMB157; MDAMB157, total growth inhibition
  TGI: 3981.1 nM
MDAMB231; Homo sapiens, MDA-MB-231, 72 h, MDAMB231, three-day drug treatment, read-out: gIC50
  IC50: 110 nM
MDAMB231; Homo sapiens, MDA-MB-231, MDAMB231, 50% net loss of cells vs time 0, read-out: LC50 (the source's name)
  CC50: > 33000 nM
MDAMB231; MDAMB231, total growth inhibition
  TGI: >33000.0 nM
MDAMB175VII; Homo sapiens, MDA-MB-175-VII, 50% net loss of cells vs time 0, read-out: LC50 (the source's name)
  CC50: 501 nM
MDAMB175VII; Homo sapiens, MDA-MB-175-VII, 72 h, three-day drug treatment, read-out: gIC50
  IC50: 4.4 nM
MDAMB175VII; total growth inhibition
  TGI: 13.5 nM
HCC1143; HCC1143, total growth inhibition
  TGI: 344.0 nM
HCC1143; Homo sapiens, 72 h, HCC1143, three-day drug treatment, read-out: gIC50
  IC50: 34 nM
HCC1143; Homo sapiens, HCC1143, 50% net loss of cells vs time 0, read-out: LC50 (the source's name)
  CC50: 19500 nM
MCF10F; Homo sapiens, MCF-10F, 72 h, three-day drug treatment, read-out: gIC50
  IC50: 2.4 nM
MCF10F; total growth inhibition
  TGI: 14.3 nM
600MPE; [1]
  CC50: 875 nM
600MPE; [2]
  IC50: 6.8 nM
600MPE; total growth inhibition
  TGI: 33.5 nM
184B5; 184B5, total growth inhibition
  TGI: 46.3 nM
184B5; Homo sapiens, 72 h, 184B5, three-day drug treatment, read-out: gIC50
  IC50: 5.6 nM
SKBR3; Homo sapiens, SK-BR-3, 72 h, SKBR3, three-day drug treatment, read-out: gIC50
  IC50: 3.2 nM
SKBR3; SKBR3, total growth inhibition
  TGI: 199.5 nM
BT483; BT483, total growth inhibition
  TGI: 8.5 nM
BT483; Homo sapiens, BT-483, 72 h, BT483, three-day drug treatment, read-out: gIC50
  IC50: 1.5 nM
BT483; Homo sapiens, BT-483, BT483, 50% net loss of cells vs time 0, read-out: LC50 (the source's name)
  CC50: 1170 nM
MDAMB436L; [1]
  CC50: > 33000 nM
MDAMB436L; [2]
  IC50: 13.2 nM
MDAMB436L; total growth inhibition
  TGI: >33000.0 nM
HCC1395; HCC1395, total growth inhibition
  TGI: 358.6 nM
HCC1395; Homo sapiens, 72 h, HCC1395, three-day drug treatment, read-out: gIC50
  IC50: 50.3 nM
HCC1395; Homo sapiens, HCC1395, 50% net loss of cells vs time 0, read-out: LC50 (the source's name)
  CC50: 26700 nM
MDAMB415; Homo sapiens, MDA-MB-415, 72 h, MDAMB415, three-day drug treatment, read-out: gIC50
  IC50: 20.8 nM
MDAMB415; Homo sapiens, MDA-MB-415, MDAMB415, 50% net loss of cells vs time 0, read-out: LC50 (the source's name)
  CC50: 528 nM
MDAMB415; MDAMB415, total growth inhibition
  TGI: 117.7 nM
ZR751; Homo sapiens, ZR-75-1, 72 h, ZR751, three-day drug treatment, read-out: gIC50
  IC50: 10.5 nM
ZR751; Homo sapiens, ZR-75-1, ZR751, 50% net loss of cells vs time 0, read-out: LC50 (the source's name)
  CC50: 248 nM
ZR751; ZR751, total growth inhibition
  TGI: 30.2 nM
184A1; 184A1, total growth inhibition
  TGI: 16.3 nM
184A1; Homo sapiens, 72 h, 184A1, three-day drug treatment, read-out: gIC50
  IC50: 1.6 nM
AU565; AU565, total growth inhibition
  TGI: 6700.0 nM
AU565; Homo sapiens, 72 h, AU565, three-day drug treatment, read-out: gIC50
  IC50: 7.2 nM
AU565; Homo sapiens, AU565, 50% net loss of cells vs time 0, read-out: LC50 (the source's name)
  CC50: > 33000 nM
SUM149PT; [1]
  CC50: 2600 nM
SUM149PT; [2]
  IC50: 20.6 nM
SUM149PT; total growth inhibition
  TGI: 862.2 nM
